Source: patent US12528786B2, “Plasma kallikrein inhibitors” (Merck Sharp & Dohme LLC, priority 2020, dated 2026)

Target: T1, Human plasma kallikrein (Homo sapiens, UniProt P03952)
T1 construct: yields a heavy chain (371 amino acids) and a light chain (248 amino acids); purchased Enzyme Research Laboratories
Assay: Kallikrein Assay (fluorogenic substrate hydrolysis, AFC release)
Assay type: biochemical
Conditions: purified Human plasma kallikrein 0.5 nM; substrate Acetyl-K—P—R-AFC 100 mM; 50 mM HEPES pH 7.4
Outline: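 Purified human plasma kallikrein (0.5 nM final) with Acetyl-K-P-R-AFC substrate (final ≤0.2 Km) in 50 mM HEPES pH 7.4, 150 mM NaCl, 5 mM CaCl2, 0.1% PEG 8000, after enzyme–inhibitor equilibration; room temperature or 37° C. AFC fluorescence (405 Ex/510 Em nm) under linear conditions; IC50 by four-parameter fit, Ki via Cheng-Prusoff.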

T1 sequence (P03952 391-638 limits assumed): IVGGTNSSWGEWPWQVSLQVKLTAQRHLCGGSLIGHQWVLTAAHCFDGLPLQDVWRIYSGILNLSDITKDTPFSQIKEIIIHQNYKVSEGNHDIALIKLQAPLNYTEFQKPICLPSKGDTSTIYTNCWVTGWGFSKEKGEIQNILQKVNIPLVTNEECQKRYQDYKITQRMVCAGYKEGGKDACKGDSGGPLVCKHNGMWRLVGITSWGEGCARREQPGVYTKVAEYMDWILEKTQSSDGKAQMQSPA
T1 sequence (P03952 20-390 partner limits assumed): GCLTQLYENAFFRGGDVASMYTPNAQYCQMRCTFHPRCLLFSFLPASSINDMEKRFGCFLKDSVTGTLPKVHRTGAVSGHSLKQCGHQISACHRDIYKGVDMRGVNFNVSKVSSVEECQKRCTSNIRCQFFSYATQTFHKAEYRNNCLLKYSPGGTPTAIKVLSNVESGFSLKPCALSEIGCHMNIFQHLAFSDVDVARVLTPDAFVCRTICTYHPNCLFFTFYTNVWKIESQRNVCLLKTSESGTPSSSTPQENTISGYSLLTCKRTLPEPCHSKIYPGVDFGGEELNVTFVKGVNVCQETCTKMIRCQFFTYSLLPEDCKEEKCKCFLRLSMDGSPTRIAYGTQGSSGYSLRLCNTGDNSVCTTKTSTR

Point of comparison: `Cc1c(C(C)n2cc(C(=O)NC3CC(c4cccc(Cl)c4)C3O)nn2)nnc(N2C[C@H]3C[C@H]3C2=O)c1C` (single isomer, unassigned) [Example 132, N-((1S,2S,3S or 1R,2R,3R))-3-(3-chlorophenyl)-2-hydroxycyclobutyl)-1-((S or R)-1-(4,5-dimethyl-6-((1R,5S)-2-oxo-3-azabicyclo[3.1.0]hexan-3-yl)pyridazin-3-yl)ethyl)-1H-1,2,3-triazole-4-carboxamide], IC50 279 nM. Against it:
- Cc1ccc(C#N)c([C@H]2C[C@@H](NC(=O)c3cn(C(C)c4cnc(N5C[C@H]6C[C@H]6C5=O)c(C)c4)nn3)C2)c1 (single isomer, unassigned) [Example 133, N-((cis)-3-(2-cyano-5-methylphenyl)cyclobutyl)-1-((R or S)-1-(5-methyl-6-((1R,5S)-2-oxo-3-azabicyclo[3.1.0]hexan-3-yl)pyridin-3-yl)ethyl)-1H-1,2,3-triazole-4-carboxamide] — 110-fold lower, 2.5 nM
- Cc1ccc(C#N)c([C@H]2C[C@@H](NC(=O)c3cn(C(C)c4cnc(N5C[C@H]6C[C@H]6C5=O)c(C)c4)nn3)C2)c1 (single isomer, unassigned) [Example 134, N-((cis)-3-(2-cyano-5-methylphenyl)cyclobutyl)-1-((S or R)-1-(5-methyl-6-((1R,5S)-2-oxo-3-azabicyclo[3.1.0]hexan-3-yl)pyridin-3-yl)ethyl)-1H-1,2,3-triazole-4-carboxamide] — 52-fold lower, 5.4 nM
- Cc1ccc(C#N)c([C@H]2C[C@@H](NC(=O)c3cn(C(C)c4cnc(N5C[C@H]6C[C@H]6C5=O)c(F)c4C)nn3)C2)n1 (single isomer, unassigned) [Example 135, N-((cis)-3-(3-cyano-6-methylpyridin-2-yl)cyclobutyl)-1-((R or S)-1-(5-fluoro-4-methyl-6-((1R,5S)-2-oxo-3-azabicyclo[3.1.0]hexan-3-yl)pyridin-3-yl)ethyl)-1H-1,2,3-triazole-4-carboxamide] — 3.5-fold lower, 80 nM
- Cc1ccc(C#N)c([C@H]2C[C@@H](NC(=O)c3cn(C(C)c4cnc(N5C[C@H]6C[C@H]6C5=O)c(F)c4C)nn3)C2)n1 (single isomer, unassigned) [Example 136, N-((cis)-3-(3-cyano-6-methylpyridin-2-yl)cyclobutyl)-1-((S or R)-1-(5-fluoro-4-methyl-6-((1R,5S)-2-oxo-3-azabicyclo[3.1.0]hexan-3-yl)pyridin-3-yl)ethyl)-1H-1,2,3-triazole-4-carboxamide] — 200-fold lower, 1.4 nM
- C[C@H](c1cncc(N2C[C@H]3C[C@H]3C2=O)c1)n1cc(C(=O)N[C@H]2C[C@@H](c3cc(Cl)ccc3C#N)C2)nn1 (single isomer, unassigned) [Example 137] — 170-fold lower, 1.6 nM
- C[C@@H](c1cncc(N2C[C@H]3C[C@H]3C2=O)c1)n1cc(C(=O)N[C@H]2C[C@@H](c3cc(Cl)ccc3C#N)C2)nn1 (single isomer, unassigned) [Example 138] — 25-fold lower, 11.1 nM
- Cc1ncc(C(C)n2cc(C(=O)N[C@H]3C[C@@H](c4cc(Cl)ccc4C#N)C3)nn2)cc1N1C[C@H]2C[C@H]2C1=O (single isomer, unassigned) [Example 139, N-((cis)-3-(5-chloro-2-cyanophenyl)cyclobutyl)-1-((R or S)-1-(6-methyl-5-((1R,5S)-2-oxo-3-azabicyclo[3.1.0]hexan-3-yl)pyridin-3-yl)ethyl)-1H-1,2,3-triazole-4-carboxamide] — 200-fold lower, 1.4 nM
- Cc1ncc(C(C)n2cc(C(=O)N[C@H]3C[C@@H](c4cc(Cl)ccc4C#N)C3)nn2)cc1N1C[C@H]2C[C@H]2C1=O (single isomer, unassigned) [Example 140, N-((cis)-3-(5-chloro-2-cyanophenyl)cyclobutyl)-1-((S or R)-1-(6-methyl-5-((1R,5S)-2-oxo-3-azabicyclo[3.1.0]hexan-3-yl)pyridin-3-yl)ethyl)-1H-1,2,3-triazole-4-carboxamide] — 25-fold lower, 11.3 nM
- [2H]C1(NC(=O)c2cn([C@@H](C)c3cnc(N4C[C@H]5C[C@H]5C4=O)cc3C)nn2)CC(C)(c2cc(Cl)ccc2C#N)C1 (single isomer, unassigned) [Example 145, N-((cis or trans)-3-(5-chloro-2-cyanophenyl)-3-methylcyclobutyl-1-d)-1-((S)-1-(4-methyl-6-((1R,5S)-2-oxo-3-azabicyclo[3.1.0]hexan-3-yl)pyridin-3-yl)ethyl)-1H-1,2,3-triazole-4-carboxamide] — 2.2-fold lower, 126 nM
- [2H]C1(NC(=O)c2cn([C@@H](C)c3cnc(N4C[C@H]5C[C@H]5C4=O)cc3C)nn2)CC(C)(c2cc(Cl)ccc2C#N)C1 (single isomer, unassigned) [Example 146, N-((trans or cis)-3-(5-chloro-2-cyanophenyl)-3-methylcyclobutyl-1-d)-1-((S)-1-(4-methyl-6-((1R,5S)-2-oxo-3-azabicyclo[3.1.0]hexan-3-yl)pyridin-3-yl)ethyl)-1H-1,2,3-triazole-4-carboxamide] — 400-fold lower, 0.7 nM
- Cc1c([C@H](C)n2cc(C(=O)NC3CC(c4cccc(Cl)c4)C3O)nn2)cnc(N2C[C@H]3C[C@H]3C2=O)c1C (single isomer, unassigned) [Example 151, N-((1R,2R,3R or 1S,2S,3S))-3-(3-chlorophenyl)-2-hydroxycyclobutyl)-1-((S)-1-(4,5-dimethyl-6-((1R,5S)-2-oxo-3-azabicyclo[3.1.0]hexan-3-yl)pyridin-3-yl)ethyl)-1H-1,2,3-triazole-4-carboxamide] — 250-fold lower, 1.1 nM
- Cc1c([C@H](C)n2cc(C(=O)NC3CC(c4cccc(Cl)c4)C3O)nn2)cnc(N2C[C@H]3C[C@H]3C2=O)c1C (single isomer, unassigned) [Example 152, N-((1S,2S,3S or 1R,2R,3R))-3-(3-chlorophenyl)-2-hydroxycyclobutyl)-1-((S)-1-(4,5-dimethyl-6-((1R,5S)-2-oxo-3-azabicyclo[3.1.0]hexan-3-yl)pyridin-3-yl)ethyl)-1H-1,2,3-triazole-4-carboxamide] — 3.6-fold lower, 78 nM
- N#Cc1ccc(Cl)cc1[C@H]1C[C@@H](NC(=O)c2cn(C(CO)c3ccc(N4C[C@H]5C[C@H]5C4=O)nc3)nn2)C1 (single isomer, unassigned) [Example 154] — 9.4-fold lower, 29.6 nM
- N#Cc1ccc(Cl)cc1[C@H]1C[C@@H](NC(=O)c2cn([C@H](CO)c3ccc(N4C[C@H]5C[C@H]5C4=O)nc3)nn2)C1 (single isomer, unassigned) [Example 155] — 10-fold lower, 28 nM
- Cc1cc([C@@](C)(O)c2cc(C(=O)N[C@H]3C[C@@H](c4cc(Cl)ccc4C#N)C3)no2)cnc1N1C[C@H]2C[C@H]2C1=O (single isomer, unassigned) [Example 156] — 400-fold lower, 0.7 nM
- Cc1cc([C@](C)(O)c2cc(C(=O)N[C@H]3C[C@@H](c4cc(Cl)ccc4C#N)C3)no2)cnc1N1C[C@H]2C[C@H]2C1=O (single isomer, unassigned) [Example 157] — 12-fold lower, 24 nM
- Cc1c([C@@H](C)n2cc(C(=O)N[C@H]3C[C@@H](c4cc(Cl)ccc4C#N)C3)nn2)nc(N2C[C@H]3C[C@H]3C2=O)n1C (single isomer, unassigned) [Example 161] — 2.9-fold lower, 95.9 nM
- Cc1c([C@H](C)n2cc(C(=O)N[C@H]3C[C@@H](c4cc(Cl)ccc4C#N)C3)nn2)nc(N2C[C@H]3C[C@H]3C2=O)n1C (single isomer, unassigned) [Example 162] — 75-fold lower, 3.7 nM
- Cc1c([C@@H](C)n2cc(C(=O)NC3CC(c4cc(Cl)ccc4C#N)C3)nn2)cnc(N2C[C@H]3C[C@H]3C2=O)c1O (single isomer, unassigned) [Example 163] — 250-fold lower, 1.1 nM
- Cc1c(N2C[C@H]3C[C@H]3C2=O)ncc([C@@H](C)n2cc(C(=O)NC3CC(c4cc(Cl)ccc4C#N)C3)cn2)c1F (single isomer, unassigned) [Example 165] — 280-fold lower, 1 nM
- Cc1c(N2C[C@H]3C[C@H]3C2=O)ncc(C(C)n2cc(C(=O)NC3CC(c4cc(Cl)ccc4C#N)C3)cn2)c1F (single isomer, unassigned) [Example 166] — 230-fold lower, 1.2 nM
- Cc1c([C@@H](C)n2cc(C(=O)NC3CC(c4cc(Cl)ccc4C#N)C3)cn2)cnc(N2C[C@H]3C[C@H]3C2=O)c1Cl (single isomer, unassigned) [Example 167] — 150-fold lower, 1.9 nM
- Cc1c(C(C)n2cc(C(=O)NC3CC(c4cc(Cl)ccc4C#N)C3)cn2)cnc(N2C[C@H]3C[C@H]3C2=O)c1Cl (single isomer, unassigned) [Example 168] — 2800-fold lower, 0.1 nM
- Cc1cc(N2C[C@H]3C[C@H]3C2=O)ncc1[C@@H](C)n1cc(C(=O)NC2CC(c3cc(Cl)ccc3C#N)C2)c([C@H](C)O)n1 (single isomer, unassigned) [Example 169] — 350-fold lower, 0.8 nM
- Cc1cc(N2C[C@H]3C[C@H]3C2=O)ncc1[C@@H](C)n1cc(C(=O)NC2CC(c3cc(Cl)ccc3C#N)C2)c(C(C)O)n1 (single isomer, unassigned) [Example 170] — 400-fold lower, 0.7 nM
- Cc1cc(N2C[C@H]3C[C@H]3C2=O)ncc1C(C)n1cc(C(=O)NC2CC(c3cc(Cl)ccc3C#N)C2)c(C(C)O)n1 (single isomer, unassigned) [Example 171] — 50-fold lower, 5.6 nM
- N#Cc1ccc(Cl)cc1[C@H]1C[C@@H](NC(=O)c2cnn(Cc3cnc(N4C[C@@H]5C[C@@H]5C4=O)nc3)c2)C1 (stereo in doubt) [Example 1, N-((cis)-3-(5-chloro-2-cyanophenyl)cyclobutyl)-1-((2-((1S,5R)-2-oxo-3-azabicyclo[3.1.0]hexan-3-yl)pyrimidin-5-yl)methyl)-1H-pyrazole-4-carboxamide] — 32-fold lower, 8.6 nM
- Cc1cc(N2C[C@H]3C[C@H]3C2=O)ncc1C(C)n1cc(C(=O)NC2CC(c3cc(Cl)ccc3C#N)C2)c([C@H](C)O)n1 (stereo in doubt) [Example 172, N-((cis)-3-(5-chloro-2-cyanophenyl)cyclobutyl)-3-((S)-1-hydroxyethyl)-1-((S)-1-(4-methyl-6-((1R,5S)-2-oxo-3-azabicyclo[3.1.0]hexan-3-yl)pyridin-3-yl)ethyl)-1H-pyrazole-4-carboxamide] — 25-fold lower, 11.1 nM
